Where two headings read alike, the source gives them in different places.
Experiments:
[1] = type: in vivo, rats
Description: The method is that described by Harris et al. (J. Pharmcol. Exp. Ther. 143 (1964) 141-148).
Male rats are used which have a weight of about 150-200 g and which have not been fasting. A point is chosen on the tail and this is irradiated by a heat source (75° C.) and the time (in seconds) for which the animal remains without moving its tail is measured.
A maximum period of time under the heat source of 8 seconds is chosen after which the animal is, in any case, removed in order to avoid tissue damage. The measurement is effected before (controls) and after treatment with the drugs. […] The percentage variation is calculated for each individual animal by the following formula: [formula] (time measurements are in seconds)
The measurements are carried out 10, 20, 30, 45, 60 and 90 minutes after treatment with the analgesics.

[2] = Randall-Selitto test: analgesia produced by opiates; type: in vivo, rats; conditions: for t (vs controls): Student t
Description: Analgesic activity in the Randall-Selitto test
The method is that described by Winters et al (J. Pharmacol. Exp. Ther. 150, 165 (1965). Groups of five female rats having an average weight of about 100 g and which have not been fasting are used. A 20% saline solution of yeast is administered into the sub-plantar region of the right hind leg.
The compounds to be tested are administered s.c. 2 hours after the injection of inflammatory agent 0.5 hours after the administration of the drugs, the pain threshold is determined by measuring the pressure needed to induce a flight reaction in the animal. The results obtained are given in Table No. 3 which records the groups treated and the doses administered, the pain threshold expressed as a pressure exerted in mmHg to cause the pain stimulus (average±S.E.) and a statistical evaluation of the results of the various treated groups by the Student "t" test.

[3] = Hot plate test: potentiation of analgesic activity of opiates; type: in vivo, rats; conditions: morphine 2.5 or methadone 1 mg/kg s.c. alone
Description: The method is that described by Eddy et al. (J. Pharmac. Exp. Therm. 107, 385 (1953)).
Groups of five male rats having a weight of about 150 g and which have not been fasting are used.
The animals are placed on a metal plate which is on the bottom of a transparent cylinder heated to 55°±1° C. by an azeotropic boiling mixture (1:1 acetone-ethyl formate). The time which passes between the moment at which the animal is placed on the hot plate and the moment at which it licks its feet or tries to jump out of the cylinder is defined as the reaction time. The control reaction time is measured 10 and 5 minutes before the administration of the drugs and 10, 20, 30, 45, 60, 90 minutes afterwards. The animals are left on the plate for a maximum period of 30 seconds. The response to the administration of the product is considered positive if at least a doubling of the normal reaction time is seen. The results obtained are given in Table 2 which records the groups treated, the doses administered and the stay times on the plate expressed as the number of positive responses over the number treated.

in vivo = conditions: mouse, sc
Description: The drug (or drugs) under examination was administered sub-cutaneously. The animals were kept under observation for 15 days after the administration.
Ten animals were used for each dose.

[4] = type: in vivo, rats; conditions: morphine 5 mg/kg i.p. repeated
Description: Activity of proglumide as an antagonist to the tolerance induced by opiates
Groups of five male rats having a weight of about 200-250 g were used.
The determination of the pain threshold was effected 1, 3, 6, 9 and 12 hours after the first treatment by the Tail Flick test.
The data given in Table 5 indicate the percentage variations in the latency (appearance of pain) before and after treatment with the drugs.

[5] = Potentiation of analgesic effect of enkephalinamide (DALA) i.c.v. (Tail Flick test); type: in vivo, rats; conditions: alone i.c.v.: proglumide 1 or DALA 10 μg/kg
Description: Potentiation of the analgesic activities of enkephalins induced by proglumide
In order to check one of the possible mechanisms for the action of proglumide, that is its possible inhibition of the enzymatic degradation of endogenous enkephalins, the following experiment was carried out:
A cannula was implanted in the right lateral ventricle of male rats having a weight of 150-200 g (groups of five animals were used) in order to allow the intracerebroventricular (I.C.V.) administration of drugs according to the method of Noble et al (Life Science 6, (1970) 281-291). […]

[6] = higher dose alone s.c.: morphine 2, propoxyphene 25, pentazocine 6 mg/kg
[7] = lower dose alone s.c.: morphine 0.5, propoxyphene 7.5, pentazocine 2 mg/kg

## CCC(=O)O[C@](Cc1ccccc1)(c1ccccc1)[C@H](C)CN(C)C [Dextropropoxyphene]
[1]; rat, in vivo
  X, potency ratio with respect to morphine = 1: 1
  average percentage variation in latency M (1-90') ± S.E.: 33.48 ± 7.16
[2]; [6]
  t (vs controls): 3.71
  P (vs controls): < 0.01
  Pain threshold (mmHg) M ± S.E.: 50.7 ± 10.02 mmHg
[2]; [7]
  t (vs controls): 3.34
  P (vs controls): < 0.05
  Pain threshold (mmHg) M ± S.E.: 37.5 ± 7.12 mmHg

## CCC(=O)C(CC(C)N(C)C)(c1ccccc1)c1ccccc1 (centres unmarked) [Methadone]
[3]; 10 min
  positive responses / treated: 1/5
[3]; 20 min
  positive responses / treated: 2/5
[3]; 30 min
  positive responses / treated: 1/5
[3]; 45 min
  positive responses / treated: 2/5
[3]; 60 min
  positive responses / treated: 1/5
[3]; 90 min
  positive responses / treated: 1/5
[3]; total over 10-90 min
  A* = Tot. positive X/30: 8
In vivo
  LD50 at 360 h: 53.5 mg/kg

## CN1CC[C@]23c4c5ccc(O)c4O[C@H]2[C@@H](O)C=C[C@H]3[C@H]1C5 [Morphine]
[1]; 10 min, morphine 3 or dextropropoxyphene 6 mg/kg alone
  percentage variation in the latency of the pain sensation: 29.0 ± 20.4%
[1]; 20 min, morphine 3 or dextropropoxyphene 6 mg/kg alone
  percentage variation in the latency of the pain sensation: 35.0 ± 9.4%
[1]; 30 min, morphine 3 or dextropropoxyphene 6 mg/kg alone
  percentage variation in the latency of the pain sensation: 71.4 ± 12.1%
[1]; 45 min, morphine 3 or dextropropoxyphene 6 mg/kg alone
  percentage variation in the latency of the pain sensation: 49.3 ± 21.3%
[1]; 60 min, morphine 3 or dextropropoxyphene 6 mg/kg alone
  percentage variation in the latency of the pain sensation: 38.8 ± 23.9%
[1]; 90 min, morphine 3 or dextropropoxyphene 6 mg/kg alone
  percentage variation in the latency of the pain sensation: 38.3 ± 20.1%
[1]; mean 1-90 min, morphine 3 or dextropropoxyphene 6 mg/kg alone
  average percentage variation in latency M (1-90') ± S.E.: 43.62 ± 7.37%
[4]; 1 h
  percentage variation in the latency: 58.98 ± 16.3%
[4]; 3 h
  percentage variation in the latency: 67.58 ± 11.1%
[4]; 6 h
  percentage variation in the latency: 30.0 ± 15.3%
[4]; 9 h
  percentage variation in the latency: 38.62 ± 8.7%
[4]; 12 h
  percentage variation in the latency: 23.1 ± 8.6%

## CC(C)=CCN1CCC2(C)c3cc(O)ccc3CC1C2C (centres unmarked) [Pentazocine]
[2]; [6]
  t (vs controls): 6.63
  P (vs controls): < 0.001
  Pain threshold (mmHg) M ± S.E.: 48.6 ± 4.93 mmHg
[2]; [7]
  t (vs controls): 2.50
  P (vs controls): < 0.05
  Pain threshold (mmHg) M ± S.E.: 27.9 ± 5.71 mmHg

## D-ala-methionine-enkephalinamide [DALA]
[5]; 5 min
  % variation in the latency to pain: 61.06 ± 11.8%
[5]; 15 min
  % variation in the latency to pain: 51.04 ± 4.6%
[5]; 30 min
  % variation in the latency to pain: 40.00 ± 9.04%
[5]; 45 min
  % variation in the latency to pain: 25.24 ± 7.7%
[5]; 60 min
  % variation in the latency to pain: 14.68 ± 9.2%
[5]; 90 min
  % variation in the latency to pain: 10.06 ± 8.3%
[5]
  Average (0 → 90) % variation in the latency to pain: 33.7 ± 8.3%

— patent US4576951A, “Proglumide, pharmaceutical preparations and compositions including it for use in human pain relief” (priority 1983, dated 1986)
